Results on five compounds are retold here after patent US6583306B1, “Methods of asymmetrically synthesizing enantiomers of Casodex, its derivatives and intermediates thereof” (priority 1999, dated 2003).

Like-named read-outs stand apart in the source and are kept apart here.

The assay concerns testosterone response. The experiment in a line: Biological data comparing pure enantiomers of Casodex (bicalutamide) with the racemic mixture: reduction of the testosterone response. It counts as cell-based. The source says:
The data for dihydrotestosterone are EC50 values. The rest of the data are IC50 values, since the assay is measuring the amount of compound it takes to reduce the testosterone response 50%.

[1] abbreviates: Experiment 1, amount of compound it takes to reduce the testosterone response 50%, read-out: IC50, Experiment 1.
The mark [2] stands for this setting: Experiment 2, amount of compound it takes to reduce the testosterone response 50%, read-out: IC50, Experiment 2.

As to `CC(C)(O)C(=O)Nc1ccc([N+](=O)[O-])c(C(F)(F)F)c1` [OH Flut. (Standard)], the IC50 is 19 nM under setting [1] and 41 nM under setting [2].
As for `CC(O)(CS(=O)(=O)c1ccc(F)cc1)C(=O)Nc1ccc(C#N)c(C(F)(F)F)c1` (racemic) [Racemate, N-[4-cyano-3-(trifluoromethyl)phenyl]-3-[(4-fluorophenyl)sulfonyl]-2-hydroxy-2-methyl-propanamide,(+−)], the IC50 by setting is: (read-out: IC50, Experiment 1) 900 nM; (read-out: IC50, Experiment 2) 1000 nM.
As to `CC(O)(CS(=O)(=O)c1ccc(F)cc1)C(=O)Nc1ccc(C#N)c(C(F)(F)F)c1` [(R), N-(4cyano-3-trifluoromethyl-phenyl)-3-(4-fluoro-phenylsulfonyl)2-hydroxy-2-methyl-propionamide], the IC50 under setting [1] is 374 nM and the IC50 under setting [2] turned out to be 359 nM.
Turning to `C[C@]12CCC(=O)C[C@@H]1CC[C@@H]1[C@@H]2CC[C@]2(C)[C@@H](O)CC[C@@H]12` [DHT (Standard), dihydrotestosterone], the EC50 is, setting by setting: (read-out: EC50, Experiment 1) 0.18 nM; (read-out: EC50, Experiment 2) 0.18 nM.
Take `C[C@@](O)(CS(=O)(=O)c1ccc(F)cc1)C(=O)Nc1ccc(C#N)c(C(F)(F)F)c1` [(S)]: the IC50 by setting is: under setting [1], 7700 nM; under setting [2], 11000 nM.
